What all share (assay): NCI tumour cell line growth inhibition, 48 h
Test [1] relates to HCT-15 colon.
In test [2] the test system is NCI-H522 lung.
Test [3] relates to HS 578T breast.
Test [4] has as its system MDA-MB-231 breast.
Test [5] has as its system SK-MEL-5 melanoma.
Test [6] relates to NCI/ADR-RES ovarian.
Test [7] deals with M14 melanoma.
The test system of test [8] is CAKI-1 renal.

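All cell lines were grown in 96-well plates and treated with compound for 48 hours. TGI denotes the concentration required for complete inhibition of growth.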 Where a SMILES comes first, the peptide text is derived from it. The star is where a group is joined. Boc = CC(C)(C)OC(=O)*; OBn = c1ccc(CO*)cc1

As to `CC(C)CCc1n[nH]c(=O)n1/N=C\c1ccccc1`, the TGI in test [1], in test [2], in test [3], in test [4], in test [5] and in test [6] was > 100 µM in each case. In addition, the TGI in test [7] was > 100 µM.

On to `C=CCCCC1CCCNC1=S` (stereo unspecified), for which the TGI in test [8], in test [1], in test [2], in test [3], in test [4] and in test [5] was > 100 µM in each case. In addition, the TGI in test [7] is > 100 µM.

As to `CCOC(=O)Nc1nn(C)c(=NCc2ccccc2)s1`, the TGI in test [8], in test [1], in test [2], in test [3], in test [4] and in test [5] was > 100 µM throughout.

As for `Cc1ccc(-c2c(C#N)c(N)nc3c2CCS(=O)(=O)c2ccccc2-3)cc1`, the TGI in test [8], in test [1], in test [2], in test [3], in test [4] and in test [5] was > 100 µM throughout. Further, the TGI in test [6] was > 100 µM.

In the case of `CC1=N[C@](C)(C2CC3C=CC2C3=O)COC1=O` (stereo partly specified), the TGI in test [8], in test [2], in test [3], in test [4], in test [5] and in test [7] was > 100 µM each time.

Take `O=C(Cc1ccccc1)NNc1nc(NNC(=O)c2ccncc2)nc(Nc2cccc(Cl)c2)n1`: the TGI in test [8], in test [1], in test [3], in test [4], in test [5] and in test [6] was > 10 µM throughout. Moreover, in test [7], the TGI is > 10 µM.

As to `CCOc1ncn(-c2ccc(NC(=S)NC34CC5CC(CC(C5)C3)C4)cc2)n1`, the TGI in test [1], in test [2], in test [4], in test [5] and in test [7] was > 100 µM each time.

For the molecule `COC(=O)C1(Cc2ccc3c(c2)CCC3)Cc2ccc3c(c2C1)CCC3` (stereo unspecified), the TGI was 79.2 µM in test [8]; > 100 µM in test [1]; 45.1 µM in test [2]; 45 µM in test [3]; 45 µM in test [4]; 40.2 µM in test [5]. Besides, the TGI in test [6] was 72.8 µM.

With `NC(CCCCNC(=O)CNC(=O)OCc1ccccc1)C(=O)NC(CCCCNC(=O)CNC(=O)OCc1ccccc1)C(=O)NC(CCCCNC(=O)CNC(=O)OCc1ccccc1)C(=O)NC(CCCCNC(=O)CNC(=O)OCc1ccccc1)C(=O)NC(CCCCNC(=O)CNC(=O)OCc1ccccc1)C(=O)NC(CCCCNC(=O)CNC(=O)OCc1ccccc1)C(=O)O` (stereo unspecified), the TGI in test [8], in test [1], in test [2], in test [4], in test [5] and in test [7] was > 75 µM throughout.

As to `O=c1oc(-c2ccccc2)c(-c2ccccc2)n1-c1ccc(Br)cc1`, the TGI in test [8] is > 100 µM; in test [1] it was > 100 µM; in test [2] it was 62.7 µM; in test [3], > 100 µM; in test [4], > 100 µM; in test [5], > 100 µM. In test [7], the TGI is > 100 µM.

With `CC(=O)N1N(c2ccc([N+](=O)[O-])cc2)C(=O)C1(C)C`, the TGI in test [1] was 34.5 µM; in test [2] it was 27.2 µM; in test [3], > 100 µM; in test [4] it was 45.7 µM; in test [5] it was 30.8 µM; in test [6] it was 89.9 µM. Moreover, in test [7], the TGI was 23.7 µM.

Regarding `O=C1CCCCC/C1=C\c1ccc(Cl)cc1`, the TGI was > 100 µM in test [8]; > 100 µM in test [1]; 73 µM in test [2]; 57.8 µM in test [3]; > 100 µM in test [4]; 35.2 µM in test [5]. Further, the TGI in test [7] is > 100 µM.

As for `O=C1Nc2ccccc2/C1=C/c1c(Cl)[nH]c2ccc(O)cc12`, the TGI is 36 µM in test [8]; 17.5 µM in test [1]; 6.74 µM in test [2]; > 100 µM in test [3]; 6.77 µM in test [4]; 9.54 µM in test [5]. This molecule gave a TGI in test [7] of 11 µM.

Regarding `O=C(/C=C/c1ccc(Cl)cc1)c1cccs1`, the TGI was 45.2 µM in test [8]; 49.9 µM in test [1]; > 100 µM in test [3]; 39.9 µM in test [4]; 32.5 µM in test [5]; 74.4 µM in test [6]. The same molecule had a TGI in test [7] of 36.3 µM.

For `CC(C)CC(NC(=O)C(CCI)Cc1ccccc1)C(=O)Nc1ccccc1` (stereo unspecified), the TGI is > 100 µM in test [8]; > 100 µM in test [1]; 78.1 µM in test [2]; > 100 µM in test [4]; > 100 µM in test [5]; > 100 µM in test [6]. In test [7], the TGI is > 100 µM.

As to `CC(NC(=O)C(Cc1ccccc1)NC(=O)C(Cc1ccccc1)NC(=O)OC(C)(C)C)C(=O)OCc1ccccc1` (stereo not drawn) (Boc-Phe-Phe-Ala-OBn; configuration not given here), the TGI in test [2], in test [3], in test [4], in test [5], in test [6] and in test [7] was > 100 µM each time.

Take `O=C1[C@@H]2C[C@@H](O)CN2C(=O)c2ccccc2N1CCCO`: the TGI in test [1], in test [2], in test [3], in test [4], in test [6] and in test [7] was > 100 µM in each case.

As for `CC(C)(C)[Si](C)(C)OCCOCn1cc(F)c(=O)[nH]c1=O`, the TGI in test [8], in test [1], in test [2], in test [3], in test [5] and in test [6] was > 100 µM throughout. The TGI in test [7] was > 100 µM.

Regarding `O=C(CNC(=O)OCc1ccccc1)NCCCCC(NC(=O)OCc1ccccc1)C(=O)NC(CCCCNC(=O)CNC(=O)OCc1ccccc1)C(=O)OCc1ccccc1` (stereo unspecified), the TGI in test [8], in test [1], in test [2], in test [4], in test [5] and in test [7] was > 62.5 µM in each case.

`CC(C)/C(Cl)=N\OC(=O)Nc1ccc(F)cc1F`: the TGI in test [8] turned out to be 34.3 µM; in test [1] it was 21.8 µM; in test [3], 52.7 µM; in test [4] it was 6.34 µM; in test [5], 27.4 µM; in test [6], 21.2 µM. In addition, the TGI in test [7] was determined as 13.3 µM.

As for `C[n+]1cccc2ccc(OC(=O)c3ccccc3)cc21`, the TGI in test [8], in test [1], in test [2], in test [3], in test [5] and in test [6] was > 100 µM throughout. Further, the TGI in test [7] is > 100 µM.

Turning to `c1ccc2cc(CNCCOCCOCCNCc3ccc4ccccc4c3)ccc2c1`, the TGI in test [8] amounted to 3.68 µM; in test [1], 3.46 µM; in test [2], 3.44 µM; in test [3], 3.74 µM; in test [4] it was 3.11 µM; in test [5], 5.66 µM. Also, the TGI in test [7] stood at 3.89 µM.

Take `O=C(NCCc1ccccc1)c1c(O)c2ccccc2[nH]c1=O`: the TGI in test [8], in test [1], in test [2], in test [3], in test [4] and in test [5] was > 100 µM in each case. In addition, the TGI in test [6] was > 100 µM.

Regarding `Oc1ccc(/C=C/c2ccc3cccc(O)c3n2)cc1O`, the TGI in test [8] was > 100 µM; in test [1], > 100 µM; in test [3] it was > 100 µM; in test [4], 62.8 µM; in test [5] it was 13.4 µM; in test [6], 2.56 µM. Moreover, in test [7], the TGI is 7.46 µM.

Consider `CCOP(=O)(OCC)C1=C(c2ccccc2)OC(N)=C(C#N)C1c1ccc(Cl)cc1` (stereo unspecified), for which the TGI in test [8], in test [1], in test [2], in test [4], in test [5] and in test [6] was > 100 µM in each case. The TGI in test [7] is > 100 µM.

For the molecule `O=C1C(=Nc2ccccc2)Oc2cc(O)ccc21`, the TGI in test [8], in test [1], in test [2], in test [4], in test [5] and in test [6] was > 100 µM in each case. Also, the TGI in test [7] was > 100 µM.

For `COC(=O)C1=C(CCCCO[Si](C)(C)C(C)(C)C)NC(=O)N2[C@@H](CCOCc3ccccc3)CC[C@H]12`, the TGI turned out to be 92.9 µM in test [8]; 43.9 µM in test [1]; 48.2 µM in test [2]; 52.1 µM in test [4]; 22.2 µM in test [5]; 42.4 µM in test [6]. Besides, the TGI in test [7] is 79.4 µM.

Values taken from PubChem BioAssay (NCI).
